# Experimental data published in article PMC12508063, “Chloroindazole based estrogen receptor β ligands with favorable pharmacokinetics promote functional remyelination and visual recovery” (Scientific Reports, 2025).
# Where “and” joins values, the source holds several entries; their conditions need not be identical. Identical values can stand only once.
# Key:
# [1] = target: T1, ERα (Homo sapiens, UniProt P03372); assay: ER reporter gene assay in HEK 293 T cells (ER-luciferase reporter); type: cell-based; settings: for Reporter gene assay raw data, ERa: 4 replicate columns
# T1 construct: expressed in transfected cells; host or cells: HEK 293 T cells
# T1 sequence (P03372 1-595): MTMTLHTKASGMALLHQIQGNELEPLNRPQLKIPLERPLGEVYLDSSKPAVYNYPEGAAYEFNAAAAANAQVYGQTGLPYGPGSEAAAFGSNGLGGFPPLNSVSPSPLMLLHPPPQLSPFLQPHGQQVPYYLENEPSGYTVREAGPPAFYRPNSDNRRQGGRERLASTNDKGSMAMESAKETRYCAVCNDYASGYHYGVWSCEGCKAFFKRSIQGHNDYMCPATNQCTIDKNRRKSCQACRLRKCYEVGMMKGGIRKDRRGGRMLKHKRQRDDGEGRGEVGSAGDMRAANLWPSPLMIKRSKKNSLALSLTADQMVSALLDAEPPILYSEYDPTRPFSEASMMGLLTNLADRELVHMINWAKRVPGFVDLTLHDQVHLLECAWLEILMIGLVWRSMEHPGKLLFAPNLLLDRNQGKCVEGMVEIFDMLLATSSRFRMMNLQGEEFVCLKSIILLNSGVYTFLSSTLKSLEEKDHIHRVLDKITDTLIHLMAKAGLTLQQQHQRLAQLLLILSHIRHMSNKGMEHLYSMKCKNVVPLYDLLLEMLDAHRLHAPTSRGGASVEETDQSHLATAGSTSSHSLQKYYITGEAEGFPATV
# [2] = target: T2, ERβ (Homo sapiens, UniProt Q92731); assay: as above; type: cell-based; settings: for Reporter gene assay raw data, ERb: ERb data block (head r19), 4 replicate columns; for ERb reporter gene assay raw data (response): four replicate columns per compound
# T2 construct: expressed in transfected cells; host or cells: HEK 293 T cells
# T2 sequence (Q92731 whole entry, species assumed): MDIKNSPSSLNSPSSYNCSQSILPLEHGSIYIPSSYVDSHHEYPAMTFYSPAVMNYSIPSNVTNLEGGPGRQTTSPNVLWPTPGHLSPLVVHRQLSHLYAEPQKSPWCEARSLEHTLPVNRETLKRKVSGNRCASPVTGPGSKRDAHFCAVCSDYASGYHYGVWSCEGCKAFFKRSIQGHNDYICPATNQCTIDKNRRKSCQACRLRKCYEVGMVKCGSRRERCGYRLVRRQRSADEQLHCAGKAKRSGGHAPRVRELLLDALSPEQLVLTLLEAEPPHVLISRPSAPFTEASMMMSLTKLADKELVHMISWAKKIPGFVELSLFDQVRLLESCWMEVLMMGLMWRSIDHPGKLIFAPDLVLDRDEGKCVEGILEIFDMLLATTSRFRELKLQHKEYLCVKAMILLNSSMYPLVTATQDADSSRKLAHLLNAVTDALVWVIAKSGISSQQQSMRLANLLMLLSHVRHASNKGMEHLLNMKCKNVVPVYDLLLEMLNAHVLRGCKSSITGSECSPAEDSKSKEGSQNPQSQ
structure (smiles),measurement,setting,value
Oc1ccc(-n2nc3ccc(O)cc3c2Cl)cc1 [Compound K-101],"Reporter gene assay raw data, ERa","[1]; Log M -6, first ERa data block (head r2)",104.545 and 98.5711 and 90.2001 and 86.8078
same,"Reporter gene assay raw data, ERa","[1]; Log M -6, second ERa data block (head r34)",95.025 and 94.1762 and 88.9253 and 94.8982
same,"Reporter gene assay raw data, ERa","[1]; Log M -6.47756, first ERa data block (head r2)",85.5888 and 84.856 and 83.9539 and 86.1821
same,"Reporter gene assay raw data, ERa","[1]; Log M -6.47756, second ERa data block (head r34)",88.8265 and 82.9979 and 83.8682 and 89.3798
same,"Reporter gene assay raw data, ERa","[1]; Log M -6.95468, first ERa data block (head r2)",74.2269 and 77.1348 and 79.6996 and 75.9439
same,"Reporter gene assay raw data, ERa","[1]; Log M -6.95468, second ERa data block (head r34)",78.2124 and 79.7922 and 76.8721 and 73.4179
same,"Reporter gene assay raw data, ERa","[1]; Log M -7.4318, first ERa data block (head r2)",58.4425 and 53.4049 and 54.6387 and 66.4913
same,"Reporter gene assay raw data, ERa","[1]; Log M -7.4318, second ERa data block (head r34)",66.1364 and 63.6537 and 63.2155 and 63.5605
same,"Reporter gene assay raw data, ERa","[1]; Log M -7.91009, first ERa data block (head r2)",54.5242 and 53.4131 and 49.5391 and 50.4679
same,"Reporter gene assay raw data, ERa","[1]; Log M -7.91009, second ERa data block (head r34)",55.1309 and 61.6988 and 46.1658 and 50.4053
same,"Reporter gene assay raw data, ERa","[1]; Log M -8.3851, first ERa data block (head r2)",36.2798 and 37.8765 and 41.0912 and 38.4728
same,"Reporter gene assay raw data, ERa","[1]; Log M -8.3851, second ERa data block (head r34)",40.2636 and 45.8507 and 39.6541 and 35.9505
same,"Reporter gene assay raw data, ERa","[1]; Log M -8.86328, first ERa data block (head r2)",20.0299 and 22.3737 and 21.1668 and 19.8353
same,"Reporter gene assay raw data, ERa","[1]; Log M -8.86328, second ERa data block (head r34)",25.3166 and 18.7166 and 21.7026 and 19.2485
same,"Reporter gene assay raw data, ERa","[1]; Log M -9.34008, first ERa data block (head r2)",7.216 and 7.17 and 5.351 and 7.624
same,"Reporter gene assay raw data, ERa","[1]; Log M -9.34008, second ERa data block (head r34)",6.164 and 5.9134 and 5.736 and 5.474
same,"Reporter gene assay raw data, ERa","[1]; Log M -9.81816, first ERa data block (head r2)",1.823 and 1.931 and 1.019 and 2.136
same,"Reporter gene assay raw data, ERa","[1]; Log M -9.81816, second ERa data block (head r34)",0.6247 and 1.953 and 0.3211 and 0.779
same,"Reporter gene assay raw data, ERa","[1]; Log M -10.2941, first ERa data block (head r2)",1.733 and 1.446 and -0.6404 and -0.6096
same,"Reporter gene assay raw data, ERa","[1]; Log M -10.2941, second ERa data block (head r34)",-0.6765 and 0.406 and -1.087 and 0.2814
same,"Reporter gene assay raw data, ERa","[1]; Log M -10.7721, first ERa data block (head r2)",-0.886 and -0.01848 and -1.926 and -0.988
same,"Reporter gene assay raw data, ERa","[1]; Log M -10.7721, second ERa data block (head r34)",-1.593 and -1.3667 and -0.9474 and 0.114
same,"Reporter gene assay raw data, ERa","[1]; Log M -11.248, first ERa data block (head r2)",-1.205 and 0.7176 and 0.3903 and 0.3615
same,"Reporter gene assay raw data, ERa","[1]; Log M -11.248, second ERa data block (head r34)",-1.908 and -0.2669 and 0.1993 and -0.8382
same,ERa reporter gene assay raw data (response),"[1]; Log M -13, four replicate columns per compound",0.8253 and -0.8253 and 1.478 and -1.478
same,"Reporter gene assay raw data, ERb",[2]; Log M -6,120.988 and 116.157 and 143.98 and 147.219
same,ERb reporter gene assay raw data (response),[2]; Log M -6,111.44 and 122.263 and 112.615 and 103.371
same,"Reporter gene assay raw data, ERb",[2]; Log M -6.47756,114.841 and 114.867 and 137.295 and 151.298
same,ERb reporter gene assay raw data (response),[2]; Log M -6.47756,99.9004 and 104.917 and 98.5023 and 107.756
same,"Reporter gene assay raw data, ERb",[2]; Log M -6.95468,124.443 and 116.848 and 139.382 and 142.558
same,ERb reporter gene assay raw data (response),[2]; Log M -6.95468,103.919 and 109.742 and 107.029 and 112.5
same,"Reporter gene assay raw data, ERb",[2]; Log M -7.4318,110.594 and 113.713 and 119.524 and 142.929
same,ERb reporter gene assay raw data (response),[2]; Log M -7.4318,106.837 and 108.962 and 105.441 and 101.954
same,"Reporter gene assay raw data, ERb",[2]; Log M -7.91009,112.17 and 111.487 and 138.169 and 129.452
same,ERb reporter gene assay raw data (response),[2]; Log M -7.91009,109.149 and 102.176 and 94.3567 and 106.552
same,"Reporter gene assay raw data, ERb",[2]; Log M -8.3851,117.284 and 114.634 and 116.673 and 134.281
same,ERb reporter gene assay raw data (response),[2]; Log M -8.3851,104.39 and 105.189 and 99.3517 and 108.832
same,"Reporter gene assay raw data, ERb",[2]; Log M -8.86328,116.233 and 118.325 and 116.611 and 129.233
same,ERb reporter gene assay raw data (response),[2]; Log M -8.86328,100.866 and 91.0385 and 99.5048 and 94.2764
same,"Reporter gene assay raw data, ERb",[2]; Log M -9.34008,83.1588 and 87.5707 and 97.8302 and 99.1529
same,ERb reporter gene assay raw data (response),[2]; Log M -9.34008,78.6235 and 76.3041 and 74.4798 and 84.9468
same,"Reporter gene assay raw data, ERb",[2]; Log M -9.81816,46.3463 and 45.2097 and 53.3712 and 57.2512
same,ERb reporter gene assay raw data (response),[2]; Log M -9.81816,51.4383 and 42.8216 and 46.1589 and 42.3832
same,"Reporter gene assay raw data, ERb",[2]; Log M -10.2941,13.5511 and 13.5131 and 21.4772 and 19.6971
same,ERb reporter gene assay raw data (response),[2]; Log M -10.2941,11.6805 and 12.8501 and 11.4455 and 13.5515
same,"Reporter gene assay raw data, ERb",[2]; Log M -10.7721,2.426 and 2.349 and 4.55 and 3.395
same,ERb reporter gene assay raw data (response),[2]; Log M -10.7721,3.239 and 2.8663 and 1.689 and 3.053
same,"Reporter gene assay raw data, ERb",[2]; Log M -11.248,1.344 and 1.212 and 1.016 and 0.8144
same,ERb reporter gene assay raw data (response),[2]; Log M -11.248,2.211 and 0.8495 and 0.02026 and 1.717
same,ERb reporter gene assay raw data (response),[2]; Log M -13,0.5566 and -0.5566 and 0.8119 and -0.8119
